TGI data for 14 compounds are collected here from PubChem BioAssay (NCI).

Molecules are shown by their SMILES.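 Five concentrations, 48 hours, 96-well plates. At the TGI there is no net growth.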

Assay in all cases: NCI tumour cell line growth inhibition, 48 h
Test [1] relates to SW-620 colon.
Test [2] deals with KM12 colon.
Test [3] concerns ACHN renal.
Test [4] concerns NCI-H460 lung.
Test [5] concerns T-47D breast.
The test system of test [6] is A498 renal.
The test system of test [7] is NCI-H23 lung.
Test [8] deals with HCT-15 colon.
Test [9] deals with K-562 leukemia.
The subject of test [10] is M14 melanoma.

With `c1nc(NCCc2cnc[nH]2)c2[nH]cnc2n1`, the TGI in test [1], in test [2], in test [3], in test [4], in test [5] and in test [6] was more than 100 µM throughout. In addition, the TGI in test [7], in test [8], in [9] and in test [10] was more than 100 µM throughout.

With `C=C(C(=O)O[C@H]1C/C(C)=C/CC/C(CO)=C/[C@H]2C(=O)OC(=C)[C@H]12)C(O)CO` (stereo partly drawn), the TGI in test [1] stood at 14.4 µM; in test [2] it was 42.3 µM; in test [3] it was 24.8 µM; in test [4], 31.6 µM; in test [5] it was 11.8 µM; in [6], 32.7 µM. In addition, the TGI in [7] worked out at 32.7 µM; in test [8], 24.4 µM; in test [9] it was 14.8 µM; in test [10] it was 28.5 µM.

Regarding `CCCCc1ccc(Nc2ncc3ncn(COCCO)c3n2)cc1`, the TGI in test [1] is more than 100 µM; in test [2], 99.1 µM; in test [3], more than 100 µM; in test [4], 57.9 µM; in [5], more than 100 µM; in test [6] it was more than 100 µM. In addition, the TGI was more than 100 µM in [7], more than 100 µM in [8], 52.7 µM in test [9] and 53 µM in test [10].

Consider `COc1ccc(-n2c(=O)c3[nH]c(=S)[nH]c3n(-c3ccc(OC)cc3)c2=S)cc1`, for which the TGI in [1], in [2], in test [3], in test [4], in test [5] and in test [6] was more than 100 µM throughout. The TGI in test [7], in test [8], in [9] and in [10] was more than 100 µM throughout.

As to `CC1=NN(c2cccc(Cl)c2)C2(C1=Cc1ccc(O)cc1)C(Cl)C(=O)N2c1nc2ccccc2s1` (stereo not drawn), the TGI in test [1] worked out at 34.8 µM; in test [2], 65 µM; in test [3], 52.7 µM; in test [4], 89.3 µM; in test [5] it was 97.8 µM; in [6], 42.5 µM. Further, the TGI is 38.4 µM in test [7], 32.1 µM in test [8], 72.7 µM in test [9] and 58.7 µM in test [10].

For `C1=NCCNCCNCCN=Cc2ccc(cc2)OCc2cccc(n2)COc2ccc1cc2`, the TGI in [1], in [2], in test [3], in test [4], in [5] and in test [6] was more than 100 µM in each case. The TGI in test [7], in test [8], in test [9] and in test [10] was more than 100 µM throughout.

Consider `CSC(=S)Nc1cc(C)cc(C)n1`, for which the TGI in test [1] is more than 31.6 µM; in test [2], more than 31.6 µM; in test [3] it was more than 31.6 µM; in test [4], more than 31.6 µM; in test [5] it was more than 31.6 µM; in test [6] it was more than 100 µM. The TGI in [7], in test [8], in test [9] and in test [10] was more than 31.6 µM each time.

As to `COc1cc2ccc(C(=O)NCCCNC(=O)c3ccc4cc(OC)c(OC)cc4c3)cc2cc1OC`, the TGI in test [1], in test [2], in test [3], in test [4], in [5] and in test [6] was more than 100 µM each time. For the same compound, the TGI in [7], in test [8], in test [9] and in [10] was more than 100 µM each time.

In the case of `O=C1NC(=O)c2ccccc2/C1=C/c1ccc2c(c1)OCO2`, the TGI in test [1] is more than 100 µM; in test [2], 41 µM; in test [3] it was 34.3 µM; in test [5], more than 100 µM; in test [6], more than 100 µM; in test [7] it was 46.8 µM. Besides, the TGI in test [8] turned out to be 31.8 µM; in test [10], 76.5 µM.

Consider `CCc1cccc2c3c([nH]c12)-c1ccccc1NC(=O)C3`, for which the TGI in test [1], in test [2], in test [4], in test [5], in test [6] and in test [7] was more than 100 µM each time. Also, the TGI in [8], in test [9] and in test [10] was more than 100 µM each time.

As for `Cc1cc(C)c2c(c1)CC1(Cc3cc(C)c(C)cc3C1=O)C2=O` (stereo not drawn), the TGI in [1], in test [2], in test [3], in test [4], in [5] and in test [6] was more than 100 µM in each case. The TGI in [8], in test [9] and in test [10] was more than 100 µM throughout.

Regarding `O=C(Nc1sccc1S(=O)(=O)c1ccc(Cl)cc1)c1ccc(F)cc1F`, the TGI is more than 100 µM in [1]; more than 100 µM in test [2]; more than 100 µM in [3]; more than 100 µM in [5]; 51.5 µM in test [6]; 54.9 µM in test [7]. Moreover, the results for the TGI in test [8], in test [9] and in test [10] were more than 100 µM, 38.6 µM and more than 100 µM, respectively.

On to `O=C(c1ccccc1)c1ccc2nc(-c3c(Cl)c(Cl)c(Cl)c(Cl)c3-c3nnc(-c4ccccc4)o3)[nH]c2c1`, for which the TGI in [1] was more than 100 µM; in test [2], more than 100 µM; in test [3] it was more than 100 µM; in [5] it was more than 100 µM; in test [6] it was 78.4 µM; in test [7], more than 100 µM. Besides, the TGI in test [8], in test [9] and in [10] was more than 100 µM in each case.

With `FC(F)(F)c1cc(N(C2c3ccccc3C=Cc3ccccc32)P(Cl)Cl)cc(C(F)(F)F)c1`, the TGI in [1] was 82.6 µM; in test [2] it was 49.4 µM; in test [3], 33.9 µM; in test [5], 56.4 µM; in test [6] it was 56.8 µM; in [7], 97.7 µM. For the same compound, the figures for the TGI in test [8], in test [9] and in test [10] were 45.5 µM, 42.7 µM and 58 µM, respectively.
